The text below walks through data of patent publication US20070010581A1, “Use of 2,5-dihydroxybenzenesulfonic compounds for the treatment of disorders based on an impairment of no production and/or of regulation of edhf function” (priority 2002, published 2007).

Test [1] has as its system human penile resistance arteries (HPRA). Kind of test: Vascular reactivity of resistance penile arteries (myograph, isometric tension). As for the experimental part:
Penile small arteries, helicine arteries (lumen diameter 150-400 μm), which are the terminal branches of deep penile arteries, were dissected by carefully removing the adhering trabecular tissue, and arterial ring segments (of 2 mm length) were subsequently mounted on two 40 μm wires on microvascular double Halpern-Mulvany myographs (J.P. Trading, Aarhus, Denmark) for isometric tension recordings. The vascular segments were allowed to equilibrate for 30 min in physiological salt solution (PSS) of the following composition (each given in mM): 119 NaCl, 4.6 KCl; 1.5 CaCl2, 1.2 MgCl2, 24.9 NaHCO3, 11 Glucose, 1,2 KH2PO4, 0.027 EDTA in water at 37° C., continuously bubbled with a 95% O2/5% CO2 mixture to maintain a pH of 7.4. Passive tension and internal circumference of the vascular segments when relaxed in situ under a transmural pressure of […] (L100) were determined. The vascular segments were then set to an internal circumference eqivalent to 90% of L100, at which the force development was dose to maximal as described in Mulvany M J, Halpem W., “Contractile properties of small resistance arteries in spontaneously hypertensive and normotensive rats”, Circ. Res., 41, 19-26, 1977. The respective literature description is incorporated by reference and is part of the disclosure. The preparations were then exposed to 125 mM K^+ (KPSS, equimolar substitution of NaCl for KCl in PSS) and the contractile response was measured. The arteries were contracted with 1 μm norepinephrine (approximately 80% of KPSS induced contraction) and relaxation responses were evaluated by cumulative additions of compounds to the chambers.
Relaxation responses are expressed as percentage of total relaxation (loss in tone) induced by the addition of 0.1 mM papaverine HCl to the chambers at the end of the experiment. All data are expressed as mean±standard error. Complete concentration-response or frequency-response curves were obtained and compared by a two-factor analysis of variance (ANOVA) statistical test using StatView sotfware for Apple computers. Erectile responses were determined by measuring the area under the curve (AUC) of the intracavemosal pressure increases to rat cavernosal nerve stimulation normalized by mean arterial pressure values. The complete frequency-response curves were compared by a two-factor ANOVA test.

Test [2] concerns erectile responses (intracavernosal pressure) to cavernosal nerve stimulation. Kind of test: Erectile responses to cavernosal nerve stimulation in anesthetized rats. It counts as in vivo, rat. Conditions: intravenous 10 mg/kg, stimulation 60 min after administration. As for the experimental part: Male Sprague-Dawley rats were anesthetized with ketamine (60 mg/kg). The surgical procedure consisted of dissection and isolation of the right cavernous nerve through an abdominal midline incision and exposure of penile crura through a transverse perineal incision. Intracavemosal pressure (ICP) measurements were accomplished by insertion into the right crus of a 23-gauge needle connected to a disposable pressure transducer (Abbott, Sligo, Ireland) and a data acquisition system (ADInstruments, Castle Hill, Australia). Left carotid artery and right external jugular vein were catheterized for constant blood pressure measurement and saline or drug infusion, respectively. Electrical stimulation was applied by a delicate platinum bipolar hook electrode connected to a stimulator and current amplifier (Cibertec, Madrid, Spain). Parameters of electrical stimulation consisted of pulses with a duration of 1 ms and 1.5 mA of current intensity for 1 minute. […]
Relaxation responses are expressed as percentage of total relaxation (loss in tone) induced by the addition of 0.1 mM papaverine HCl to the chambers at the end of the experiment. All data are expressed as mean±standard error. […] Erectile responses were determined by measuring the area under the curve (AUC) of the intracavemosal pressure increases to rat cavernosal nerve stimulation normalized by mean arterial pressure values. […]

For `O=S(=O)(O)c1cc(O)ccc1O` [calcium dobesilate, calcium dihydroxy-2,5 benzenesulfonate], the “effect on ACh-induced relaxation of HPRA” value in test [1] (calcium dobesilate 10 μM) is “markedly potentiated”. For the same molecule, in test [1] (calcium dobesilate 10 μM, combined inhibition of NOS and COX), the “potentiation of ACh-induced relaxation of HPRA under combined inhibition of NOS and COX” value was “not significantly affected”. Besides, in test [1] (calcium dobesilate 10 μM, high potassium concentration (35 mM)), the “potentiation of ACh-induced relaxation of HPRA at high potassium concentration” value is recorded as “abolished”. The “potentiating effects on ACh-induced relaxation of HPRA with APA and CTX” value in test [1] (combination of APA (100 nM) and CTX (100 nM)) was “abolished the potentiating effects”. Besides, the “potentiating effects on ACh-induced relaxation of HPRA resistant to NOS and COX inhibition, with miconazole” value in test [1] (miconazole (0.3 mM)) is “significantly reduced the potentiating effects”. For the same molecule, in test [2], the “erectile responses to cavernosal nerve stimulation” value was “significantly enhanced the erectile responses”.
